Test: Final pH of the formulation after dissolution in 0.01-molar hydrochloric acid / release
Assay type: physicochemical
Settings: 0.1 g solid in 100 g of 0.01-molar hydrochloric acid, 400 rpm (FIG. 2)
Experimental: For verification of the final pH after dissolution, 100 g of 0.01-molar hydrochloric acid was put in a beaker and stirred with an inclined-vane stirrer at 400 rpm. Then 0.1 g of the solid to be verified (formulation from example 1, and magnesium hydroxide) was added and the increase in pH was recorded (pH-meter: Knick®Calimatic 766).

## [Mg+2].[OH-].[OH-] [pure magnesium hydroxide, magnesium hydroxide]
  time after which the final pH is established: about 1800 s
